How the values were obtained:
Format in all cases: in vivo
Johnsongrass [1] = experiment: Post-emergent herbicidal test; conditions: 4 WAT, 11.2 kg/h
Procedure: (§1) The post-emergent tests were conducted as follows:
(§2) The active ingredients are applied in spray form to two or three week old specimens of various plant species. The spray, a solution or wettable powder suspension containing the appropriate rate of active ingredient to give the desired test rate and a surfactant, is applied to the plants.
(§3) The compounds were also tested by utilizing the above procedure on the following plant species: […]

Cocklebur [2] = experiment: Post-emergent herbicidal test; conditions: 4 WAT, 11.2 kg/h
Procedure: as §1, §2, §3

Yellow Nutsedge [3] = experiment: Post-emergent herbicidal test; conditions: 4 WAT, 11.2 kg/h
Procedure: as §1, §2, §3

Velvetleaf [4] = experiment: Post-emergent herbicidal test; conditions: 4 WAT, 11.2 kg/h
Procedure: as §1, §2, §3

Barnyardgrass [5] = experiment: Post-emergent herbicidal test; conditions: 4 WAT, 11.2 kg/h
Procedure: as §1, §2, §3

Smartweed [6] = experiment: Post-emergent herbicidal test; conditions: 4 WAT, 11.2 kg/h
Procedure: as §1, §2, §3

Downy Brome [7] = experiment: Post-emergent herbicidal test; conditions: 4 WAT, 11.2 kg/h
Procedure: as §1, §2, §3

Canada Thistle [8] = experiment: Post-emergent herbicidal test; conditions: 4 WAT, 11.2 kg/h
Procedure: as §1, §2, §3

Quackgrass [9] = experiment: Post-emergent herbicidal test; conditions: 4 WAT, 11.2 kg/h
Procedure: as §1, §2, §3

Lambsquarters [10] = experiment: Post-emergent herbicidal test; conditions: 4 WAT, 11.2 kg/h
Procedure: as §1, §2, §3

Morningglory [11] = experiment: Post-emergent herbicidal test; conditions: 4 WAT, 11.2 kg/h
Procedure: as §1, §2, §3

Johnsongrass [12] = experiment: Pre-emergent herbicidal test; conditions: 4 WAT, 11.2 kg/h
Procedure: (§4) The pre-emergent test was conducted as follows:
(§5) A good grade of top soil was placed in aluminum pans and compacted to a depth of three-eighths to one-half inch from the top of the pan. On the top of the soil was placed a predetermined number of seeds or vegetative propagules of various plant species which were pressed into the soil surface. The soil required to level fill the pans after seeding or adding vegetative propagules was weighed into a pan. A known amount of the active ingredient applied in a solvent or as a wettable powder and the soil were thoroughly mixed, and used as a cover layer for prepared pans.
(§6) The herbicidal rating was obtained by means of a fixed scale based on the percent injury of each plant species. The ratings are defined as follows: […]
as §3

Cocklebur [13] = experiment: Pre-emergent herbicidal test; conditions: 4 WAT
Procedure: as §4, §5, §6, §3

Yellow Nutsedge [14] = experiment: Pre-emergent herbicidal test; conditions: 4 WAT, 11.2 kg/h
Procedure: as §4, §5, §6, §3

Velvetleaf [15] = experiment: Pre-emergent herbicidal test; conditions: 4 WAT
Procedure: as §4, §5, §6, §3

Barnyardgrass [16] = experiment: Pre-emergent herbicidal test; conditions: 4 WAT
Procedure: as §4, §5, §6, §3

Smartweed [17] = experiment: Pre-emergent herbicidal test; conditions: 4 WAT
Procedure: as §4, §5, §6, §3

Downy Brome [18] = experiment: Pre-emergent herbicidal test; conditions: 4 WAT
Procedure: as §4, §5, §6, §3

Canada Thistle [19] = experiment: Pre-emergent herbicidal test; conditions: 4 WAT, 11.2 kg/h
Procedure: as §4, §5, §6, §3

Quackgrass [20] = experiment: Pre-emergent herbicidal test; conditions: 4 WAT, 11.2 kg/h
Procedure: as §4, §5, §6, §3

Lambsquarters [21] = experiment: Pre-emergent herbicidal test; conditions: 4 WAT
Procedure: as §4, §5, §6, §3

Morningglory [22] = experiment: Pre-emergent herbicidal test; conditions: 4 WAT
Procedure: as §4, §5, §6, §3

Hemp Sesbania = experiment: Pre-emergent herbicidal test; conditions: 4 WAT
Procedure: as §4, §5, §6

Sorghum = experiment: Pre-emergent herbicidal test; conditions: 4 WAT
Procedure: as §4, §5, §6

Wheat = experiment: Pre-emergent herbicidal test; conditions: 4 WAT
Procedure: as §4, §5, §6

Wild Buckwheat = experiment: Pre-emergent herbicidal test; conditions: 4 WAT
Procedure: as §4, §5, §6

Soybean = experiment: Pre-emergent herbicidal test; conditions: 4 WAT
Procedure: as §4, §5, §6

Rice = experiment: Pre-emergent herbicidal test; conditions: 4 WAT
Procedure: as §4, §5, §6

Crabgrass = experiment: Pre-emergent herbicidal test; conditions: 4 WAT
Procedure: as §4, §5, §6

Panicum Spp. = experiment: Pre-emergent herbicidal test; conditions: 4 WAT
Procedure: as §4, §5, §6

Sugarbeet = experiment: Pre-emergent herbicidal test; conditions: 4 WAT
Procedure: as §4, §5, §6
Also: ranges in brackets are in %.

O=C(O)c1ccccc1-c1cc(-c2cccc(C(F)(F)F)c2)no1 [Example 11, 2-[3-(3-Trifluoromethylphenyl)-5-Isoxazolyl]Benzoic Acid]
herbicidal rating (Johnsongrass [1]): 1 (25-49) | herbicidal rating (Cocklebur [2]): 1 (25-49) | herbicidal rating (Yellow Nutsedge [3]): 1 (25-49) | herbicidal rating (Velvetleaf [4]): 1 (25-49) | herbicidal rating (Barnyardgrass [5]): 2 (50-74) | herbicidal rating (Smartweed [6]): 2 (50-74) | herbicidal rating (Downy Brome [7]): 2 (50-74) | herbicidal rating (Canada Thistle [8]): 1 (25-49) | herbicidal rating (Quackgrass [9]): 0 (0-24) | herbicidal rating (Lambsquarters [10]): 2 (50-74) | herbicidal rating (Morningglory [11]): 1 (25-49) | herbicidal rating (Johnsongrass [12]): 0 (0-24) | herbicidal rating (Cocklebur [13]; 1.12 kg/h): 0 (0-24) | herbicidal rating (Cocklebur [13]; 5.60 kg/h): 1 (25-49) | herbicidal rating (Cocklebur [13]; 11.2 kg/h): 3 (75-100) | herbicidal rating (Yellow Nutsedge [14]): 1 (25-49) | herbicidal rating (Velvetleaf [15]; 1.12 kg/h): 1 (25-49) | herbicidal rating (Velvetleaf [15]; 5.60 kg/h): 2 (50-74) | herbicidal rating (Velvetleaf [15]; 11.2 kg/h): 3 (75-100) | herbicidal rating (Barnyardgrass [16]; 1.12 kg/h): 3 (75-100) | herbicidal rating (Barnyardgrass [16]; 5.60 kg/h): 2 (50-74) | herbicidal rating (Barnyardgrass [16]; 11.2 kg/h): 3 (75-100) | herbicidal rating (Smartweed [17]; 1.12 kg/h): 2 (50-74) | herbicidal rating (Smartweed [17]; 5.60 kg/h): 3 (75-100) | herbicidal rating (Smartweed [17]; 11.2 kg/h): 3 (75-100) | herbicidal rating (Downy Brome [18]; 1.12 kg/h): 2 (50-74) | herbicidal rating (Downy Brome [18]; 5.60 kg/h): 2 (50-74) | herbicidal rating (Downy Brome [18]; 11.2 kg/h): 3 (75-100) | herbicidal rating (Canada Thistle [19]): 3 (75-100) | herbicidal rating (Quackgrass [20]): 3 (75-100) | herbicidal rating (Lambsquarters [21]; 1.12 kg/h): 2 (50-74) | herbicidal rating (Lambsquarters [21]; 5.60 kg/h): 3 (75-100) | herbicidal rating (Lambsquarters [21]; 11.2 kg/h): 2 (50-74) | herbicidal rating (Morningglory [22]; 1.12 kg/h): 1 (25-49) | herbicidal rating (Morningglory [22]; 5.60 kg/h): 2 (50-74) | herbicidal rating (Morningglory [22]; 11.2 kg/h): 2 (50-74) | herbicidal rating (Hemp Sesbania; 1.12 kg/h): 3 (75-100) | herbicidal rating (Hemp Sesbania; 5.60 kg/h): 2 (50-74) | herbicidal rating (Sorghum; 1.12 kg/h): 1 (25-49) | herbicidal rating (Sorghum; 5.60 kg/h): 3 (75-100) | herbicidal rating (Wheat; 1.12 kg/h): 0 (0-24) | herbicidal rating (Wheat; 5.60 kg/h): 1 (25-49) | herbicidal rating (Wild Buckwheat; 1.12 kg/h): 2 (50-74) | herbicidal rating (Wild Buckwheat; 5.60 kg/h): 3 (75-100) | herbicidal rating (Soybean; 1.12 kg/h): 3 (75-100) | herbicidal rating (Soybean; 5.60 kg/h): 3 (75-100) | herbicidal rating (Rice; 1.12 kg/h): 3 (75-100) | herbicidal rating (Rice; 5.60 kg/h): 3 (75-100) | herbicidal rating (Crabgrass; 1.12 kg/h): 2 (50-74) | herbicidal rating (Crabgrass; 5.60 kg/h): 3 (75-100) | herbicidal rating (Panicum Spp.; 1.12 kg/h): 2 (50-74) | herbicidal rating (Panicum Spp.; 5.60 kg/h): 3 (75-100) | herbicidal rating (Sugarbeet; 1.12 kg/h): 2 (50-74) | herbicidal rating (Sugarbeet; 5.60 kg/h): 2 (50-74)

From patent US4229204A, “Trifluoromethylphenyl isoxazolyl benzoates” (Monsanto Company, priority 1978, dated 1980)
